Source: patent publication US12559481B2, “Quinoline derivatives” (ELANCO ANIMAL HEALTH GMBH, priority 2018, dated 2026)

Key:
[1] = system: Dirofilaria immitis third-stage larvae; experiment: In vitro assay 5: Dirofilaria immitis (DIROIM L4) larval motility; settings: 72 h, read-out: EC50 (reduction of motility)
[2] = molecular target: D. immitis Slo-1 (Dirofilaria immitis, UniProt I0DFK5); experiment: In vitro assay 2: D. immitis Slo-1, membrane potential in recombinant CHO cell line; type: cell-based
D. immitis Slo-1, sequence (I0DFK5 1-1119): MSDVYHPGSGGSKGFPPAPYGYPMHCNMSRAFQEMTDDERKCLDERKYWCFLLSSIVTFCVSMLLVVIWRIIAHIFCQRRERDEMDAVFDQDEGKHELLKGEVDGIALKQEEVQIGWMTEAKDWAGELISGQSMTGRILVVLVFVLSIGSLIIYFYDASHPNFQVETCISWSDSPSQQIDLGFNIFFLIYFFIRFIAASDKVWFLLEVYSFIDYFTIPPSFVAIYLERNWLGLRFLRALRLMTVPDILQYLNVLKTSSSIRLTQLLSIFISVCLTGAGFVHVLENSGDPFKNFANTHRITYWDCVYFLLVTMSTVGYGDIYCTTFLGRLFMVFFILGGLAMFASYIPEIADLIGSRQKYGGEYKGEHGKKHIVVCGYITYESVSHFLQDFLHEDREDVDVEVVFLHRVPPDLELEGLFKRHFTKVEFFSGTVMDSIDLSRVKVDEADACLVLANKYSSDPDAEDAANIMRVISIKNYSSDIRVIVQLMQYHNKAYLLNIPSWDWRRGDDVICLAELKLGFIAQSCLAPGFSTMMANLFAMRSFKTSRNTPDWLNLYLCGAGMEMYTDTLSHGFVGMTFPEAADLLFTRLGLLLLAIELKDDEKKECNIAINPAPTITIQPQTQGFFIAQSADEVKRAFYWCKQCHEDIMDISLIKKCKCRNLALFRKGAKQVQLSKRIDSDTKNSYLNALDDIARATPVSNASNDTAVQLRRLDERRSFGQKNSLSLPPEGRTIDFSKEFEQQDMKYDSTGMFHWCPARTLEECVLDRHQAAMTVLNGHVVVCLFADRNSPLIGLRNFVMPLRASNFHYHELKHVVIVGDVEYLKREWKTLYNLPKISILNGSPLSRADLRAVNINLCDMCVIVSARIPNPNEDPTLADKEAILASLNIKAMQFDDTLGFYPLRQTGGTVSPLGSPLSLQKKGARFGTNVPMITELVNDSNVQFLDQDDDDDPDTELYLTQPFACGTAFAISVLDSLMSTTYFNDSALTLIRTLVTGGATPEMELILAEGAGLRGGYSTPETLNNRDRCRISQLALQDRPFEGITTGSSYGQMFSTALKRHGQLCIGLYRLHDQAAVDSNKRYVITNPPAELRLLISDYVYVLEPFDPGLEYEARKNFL

[3] = system: Dirofilaria immitis microfilariae; experiment: In vitro assay 4: Dirofilaria immitis microfilariae (DIROIM L1) motility; settings: 72 h, read-out: EC50 (reduction of motility)
[4] = system: Adult Nippostrongylus brasiliensis; experiment: In vitro assay 3: Nippostrongylus brasiliensis (NIPOBR), acetylcholine esterase readout; settings: read-out: activity (reduction of AChE compared to negative control); for inhibition at 1 µg/mL: 1 μg/ml; for inhibition at 10 µg/mL: 10 μg/ml
Protocol: In Vitro Assay 3: Nippostrongylus Brasiliensis (NIPOBR)
Adult Nippostrongylus brasiliensis were washed with saline buffer containing 100 U/ml penicillin, 0.1 mg/ml streptomycin and 2.5 μg/ml amphotericin B. Test compounds were dissolved in DMSO and worms were incubated in medium in a final concentration of 10 μg/ml (10 ppm) respectively 1 μg/ml (1 ppm). An aliquot of the medium was used to determine the acetylcholine esterase activity in comparison to a negative control. The principle of measuring acetylcholine esterase as readout for anthelmintic activity was described in Rapson et al (1986) and Rapson et al (1987).

[5] = molecular target: C. elegans Slo-1a (Caenorhabditis elegans, UniProt Q95V25)
C. elegans Slo-1a, sequence (Q95V25 whole entry): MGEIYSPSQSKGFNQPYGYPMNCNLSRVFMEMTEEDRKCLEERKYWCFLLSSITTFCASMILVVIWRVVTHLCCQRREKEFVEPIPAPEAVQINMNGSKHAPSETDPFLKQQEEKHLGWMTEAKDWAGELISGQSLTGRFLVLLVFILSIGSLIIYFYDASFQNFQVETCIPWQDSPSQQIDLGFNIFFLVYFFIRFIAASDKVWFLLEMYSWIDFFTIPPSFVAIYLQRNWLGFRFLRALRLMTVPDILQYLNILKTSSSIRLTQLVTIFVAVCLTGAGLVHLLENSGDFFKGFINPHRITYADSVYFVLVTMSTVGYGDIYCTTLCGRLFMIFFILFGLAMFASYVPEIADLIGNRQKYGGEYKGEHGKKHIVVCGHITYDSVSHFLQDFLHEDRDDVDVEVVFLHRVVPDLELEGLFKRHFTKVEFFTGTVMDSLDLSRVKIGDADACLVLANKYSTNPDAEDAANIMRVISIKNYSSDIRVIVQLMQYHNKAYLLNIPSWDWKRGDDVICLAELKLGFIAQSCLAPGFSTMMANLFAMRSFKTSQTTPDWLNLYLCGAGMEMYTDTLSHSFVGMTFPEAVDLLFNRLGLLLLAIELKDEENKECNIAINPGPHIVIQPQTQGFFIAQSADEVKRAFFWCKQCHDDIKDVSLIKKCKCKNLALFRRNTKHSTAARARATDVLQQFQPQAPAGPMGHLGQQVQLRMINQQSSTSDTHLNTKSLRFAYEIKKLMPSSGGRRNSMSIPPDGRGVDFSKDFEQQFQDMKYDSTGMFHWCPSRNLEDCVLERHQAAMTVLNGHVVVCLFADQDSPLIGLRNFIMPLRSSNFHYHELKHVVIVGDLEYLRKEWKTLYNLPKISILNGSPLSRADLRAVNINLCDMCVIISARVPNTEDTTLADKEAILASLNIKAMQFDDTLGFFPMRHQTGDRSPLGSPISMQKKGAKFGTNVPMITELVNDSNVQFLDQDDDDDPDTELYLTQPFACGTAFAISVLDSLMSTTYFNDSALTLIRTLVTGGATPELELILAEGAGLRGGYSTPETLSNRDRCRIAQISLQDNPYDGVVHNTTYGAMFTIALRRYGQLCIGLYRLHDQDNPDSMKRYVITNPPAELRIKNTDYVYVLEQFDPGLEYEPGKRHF
Protocol: In Vitro Assay 1: C. elegans Slo-1a—Action at a Recombinant C. elegans Cell Line
Generation of a Stable C. elegans CHO Cell Line
For transfection with plasmid DNA to express C. elegans Slo-1a (accession number AAL28102) CHO cells were passaged to 40% confluence before adding the transfection solution to the cell culture. The transfection solution included 300 μL OptiMEM (Life Technologies, Nr.: 31985), 2 μL (=6 μg) of plasmid DNA containing the C. elegans Slo 1a gene and 9 μL FugeneHD (Promega, Nr.: E2311), and was added to the cells prior to incubation for 48 hours at 37° C., 5% CO2. The transfection medium was exchanged for the selection medium which contains additional G418 (2 mg/ml, Invitrogen, Nr.: 10131) and the cells were seeded into 384 well plates (300 cells/well). After a few weeks, the remaining surviving cells were tested with a voltage sensitive dye (Membrane Potential Assay Kit, Molecular Devices Nr.: R8034) for K+ channel expression. Positive cell clones were purified by the limited dilution technique. For this the clone with the highest and most robust signal in the voltage sensitive dye assay was further subcloned (incubated) in 384 well plates (0.7 cells/well) in order to obtain clonal purity. This generated a final stable CHO cell line expressing the C. elegans Slo-1a.
Cells were cultured at 37° C., and 5% CO2 in MEMalpha with Glutamax I (Invitrogen, Nr.: 32571), supplemented with 10% (v/v) heat inactivated fetal bovine serum (Invitrogen, Nr.: 10500), G418 (1 mg/ml. Invitrogen. Nr.: 10131). Cells were detached using Accutase (Sigma. Nr.: A6964).
Membrane Potential Measurements
Laboratory compound testing was performed on 384-well microtiter plates (MTPs, Greiner, Nr.: 781092), 8000 cells/well were plated onto 384-well MTPs and cultured for 20 to 24 hours at 37° C., and 5% CO2. After removal of the cell culture medium, the cells were washed once with tyrode (150 mM NaCl, 0.3 mM KCl, 2 mM CaCl2. 1 mM MgCl2. 0.8 mM NaH2PO4, 5 mM Glucose, 28 mM Hepes, pH 7.4) and then loaded with the voltage sensitive dye of the Membrane Potential Assay Kit diluted in tyrode for 1 h at room temperature.
After starting the measurement of fluorescence using a FLIPR Tetra (Molecular Devices, Exc. 510-545 nm, Emm. 565-625 nm), test compounds were added followed by the addition of KCl tyrode (final assay concentration: 70 mM KCl, 2 mM CaCl2, 1 mM MgCl2, 0.8 mM NaH2PO4, 5 mM Glucose, 28 mM Hepes, pH 7.4, including the voltage sensitive dye). The measurement was completed after 7 minutes.
The data were evaluated by using the ActivityBase XLfit software (IDBS) for curve fitting and calculation of the half-maximal effective concentration (EC50) and are reported as negative decadic logarithm (pE50).

[6] = system: Cooperia curticei; experiment: In vitro assay 6: Cooperia curticei (COOPCU) larval mortality; settings: 120 h, read-out: activity (larval mortality)
Protocol: In Vitro Assay 6: Cooperia curticei (COOPCU)
Solvent: Dimethyl Sulfoxide
Approximately 40 nematode larvae (Cooperia curticei) are transferred into a test tube containing the compound solution.
After 5 days percentage of larval mortality is recorded. 100% efficacy means all larvae are killed; 0% efficacy means no larvae are killed.

[7] = system: Haemonchus contortus; experiment: In vitro assay 7: Haemonchus contortus (HAEMCO) larval mortality; settings: 120 h, read-out: activity (larval mortality)
Protocol: In Vitro Assay 7: Haemonchus contortus (HAEMCO)
Solvent: Dimethyl Sulfoxide
Approximately 40 larvae of the red stomach worm (Haemonchus contortus) are transferred into a test tube containing compound solution.
After 5 days the percentage of larval mortality is recorded. 100% efficacy means all larvae are killed, 0% efficacy means no larvae are killed.

[8] = log P by HPLC on reversed phase columns (LC-MS Method 0)
Protocol: Measurement of log P values was performed according to EEC directive 79/831 Annex V.A8 by HPLC (High Performance Liquid Chromatography) on reversed phase columns with the following methods, instrument(s): Agilent 1100 LC system, Agilent MSD system, HTS PAL; Waters IClass Acquity UPLC, SQD2 (MS), PDA (LV). • ^[a] log P value is determined by measurement of LC-UV, in an acidic range, with 0.1% formic acid in water and acetonitrile as eluent (linear gradient from 10% acetonitrile to 95% acetonitrile). • ^[b] log P value is determined by measurement of LC-UV, in a neutral range, with 0.001 molar ammonium acetate solution in water and acetonitrile as eluent (linear gradient from 10% acetonitrile to 95% acetonitrile).
Calibration was done with straight-chain alkan-2-ones (with 3 to 16 carbon atoms) with known log P values (measurement of log P values using retention times with linear interpolation between successive alkanones). Lambda-max-values were determined using UV-spectra from 200 nm to 400 nm and the peak values of the chromatographic signals.

Row | Compound | EC50 [1] | EC50 [2] | EC50 [3] | inhibition at 1 µg/mL [4] | inhibition at 10 µg/mL [4] | EC50 [5] | mortality at 0.8 ppm [6] | mortality at 4 ppm [6] | mortality at 4 ppm [7] | mortality at 20 ppm [7] | chromatographic logP [8] | mortality at 20 ppm [6]
1 | O=C(N[C@H]1CCOc2ccccc21)c1cnc2c(-c3cc(F)cc(F)c3F)c(F)ccc2c1C1=CCOCC1 [Example 6, N-[(4S)-3,4-dihydro-2H-chromen-4-yl]-4-(3,6-dihydro-2H-pyran-4-yl)-7-fluoro-8-(2,3,5-trifluorophenyl)quinoline-3-carboxamide] | < 0.1 µg/mL | 3.16 to 31.6 nM | < 0.1 µg/mL | > 80% | > 80% | – | – | – | – | – | – | –
2 | O=C(N[C@H]1CCCc2ccccc21)c1cnc2c(-c3cc(F)cc(F)c3F)cccc2c1C1CCOCC1 [Example 20] | < 0.1 µg/mL | 31.6 to 316 nM | < 0.1 µg/mL | > 80% | > 80% | – | – | – | – | – | – | –
3 | O=C(N[C@H]1CCc2ccccc21)c1cnc2c(-c3cc(F)cc(F)c3F)c(F)ccc2c1C1CCOCC1 [Example 16] | < 0.1 µg/mL | 3.16 to 31.6 nM | < 0.1 µg/mL | > 80% | > 80% | < 3.16 nM | – | – | – | – | – | –
4 | O=C(N[C@H]1CCOc2ccccc21)c1cnc2c(-c3cc(F)cc(F)c3F)cccc2c1C1CCOCC1 [Example 2, N-[(4S)-3,4-Dihydro-2H-chromen-4-yl]-4-(tetrahydro-2H-pyran-4-yl)-8-(2,3,5-trifluorophenyl)quinoline-3-carboxamide] | < 0.1 µg/mL | 3.16 to 31.6 nM | < 0.1 µg/mL | > 80% | > 80% | < 3.16 nM | 100% | 100% | 90% | 90% | – | –
5 | COc1ccc2c(C3CCOCC3)c(C(=O)N[C@H]3CCOc4ccccc43)cnc2c1-c1cc(F)cc(F)c1F [Example 7, N-[(4S)-3,4-dihydro-2H-chromen-4-yl]-7-methoxy-4-(tetrahydro-2H-pyran-4-yl)-8-(2,3,5-trifluorophenyl)quinoline-3-carboxamide] | < 0.1 µg/mL | 3.16 to 31.6 nM | < 0.1 µg/mL | > 80% | > 80% | < 3.16 nM | – | – | – | – | – | –
6 | O=C(N[C@H]1CCc2ccccc21)c1cnc2c(-c3cc(F)cc(F)c3F)c(F)ccc2c1N1CC(F)C1 [Example 12] | < 0.1 µg/mL | 31.6 to 316 nM | < 0.1 µg/mL | > 80% | > 80% | < 3.16 nM | – | – | – | – | – | –
7 | CC1(C)C[C@H](NC(=O)c2cnc3c(-c4cc(F)cc(F)c4F)c(F)ccc3c2N2CC(F)C2)c2ccccc2O1 [Example 13] | < 0.1 µg/mL | 316 to 5010 nM | < 0.1 µg/mL | – | > 80% | 3.16 to 31.6 nM | – | – | – | – | – | –
8 | O=C(N[C@H]1CCOc2ccccc21)c1cnc2c(-c3cc(F)cc(F)c3F)cccc2c1N1CC(F)C1 [Example 15] | < 0.1 µg/mL | 31.6 to 316 nM | < 0.1 µg/mL | > 80% | > 80% | < 3.16 nM | – | – | – | – | – | –
9 | CCc1c(C(=O)N[C@H]2CCOc3ccccc32)cnc2c(-c3cc(F)cc(F)c3F)c(Cl)ccc12 [Example 21] | < 0.1 µg/mL | – | < 0.1 µg/mL | > 80% | > 80% | < 3.16 nM | – | – | – | – | – | –
10 | O=C(NC1COc2ccccc21)c1cnc2c(-c3cc(F)cc(F)c3F)cccc2c1C1CCOCC1 (racemic) [Example 17] | < 0.1 µg/mL | 316 to 5010 nM | < 0.1 µg/mL | > 80% | > 80% | – | – | – | – | – | – | –
11 | CCc1c(C(=O)N[C@H]2CCOc3ccccc32)cnc2c(-c3cc(F)cc(F)c3F)c(F)ccc12 [Example 4, N-[(4S)-3,4-Dihydro-2H-chromen-4-yl]-4-ethyl-7-fluoro-8-(2,3,5-trifluorophenyl)quinoline-3-carboxamide] | < 0.1 µg/mL | 3.16 to 31.6 nM | < 0.1 µg/mL | > 80% | > 80% | < 3.16 nM | – | – | – | – | – | –
12 | O=C(N[C@H]1CCOc2ccccc21)c1cnc2c(-c3cc(F)cc(F)c3F)c(F)ccc2c1N1CC(F)C1 [Example 5, N-[(4S)-3,4-Dihydro-2H-chromen-4-yl]-7-fluoro-4-(3-fluoroazetidin-1-yl)-8-(2,3,5-trifluorophenyl)quinoline-3-carboxamide] | < 0.1 µg/mL | 3.16 to 31.6 nM | < 0.1 µg/mL | > 80% | > 80% | 3.16 to 31.6 nM | – | – | – | – | 1.93 | –
13 | O=C(N[C@H]1CCOc2ccccc21)c1cnc2c(-c3cc(F)cc(F)c3F)c(F)ccc2c1C1CCOCC1 [Example 3, N-[(4S)-3,4-Dihydro-2H-chromen-4-yl]-7-fluoro-4-(tetrahydro-2H-pyran-4-yl)-8-(2,3,5-trifluorophenyl)quinoline-3-carboxamide] | < 0.1 µg/mL | 3.16 to 31.6 nM | < 0.1 µg/mL | > 80% | > 80% | – | – | – | – | – | – | –
14 | O=C(N[C@H]1CCCc2ccccc21)c1cnc2c(-c3cc(F)cc(F)c3F)c(F)ccc2c1N1CC(F)C1 [Example 11] | < 0.1 µg/mL | – | < 0.1 µg/mL | > 80% | > 80% | < 3.16 nM | – | – | – | – | – | –
15 | Cc1ccc2c(c1)[C@@H](NC(=O)c1cnc3c(-c4cc(F)cc(F)c4F)c(F)ccc3c1N1CC(F)C1)CCO2 [Example 9] | < 0.1 µg/mL | 316 to 5010 nM | < 0.1 µg/mL | > 80% | > 80% | – | – | – | – | – | – | –
16 | O=C(N[C@H]1CCOc2ccc(F)cc21)c1cnc2c(-c3cc(F)cc(F)c3F)c(F)ccc2c1N1CC(F)C1 [Example 10] | < 0.1 µg/mL | 31.6 to 316 nM | < 0.1 µg/mL | > 80% | > 80% | < 3.16 nM | – | – | – | – | – | –
17 | O=C(NC1CCSc2ccc(F)cc21)c1cnc2c(-c3cc(F)cc(F)c3F)c(F)ccc2c1N1CC(F)C1 (stereo not drawn) [Example 8] | < 0.1 µg/mL | 316 to 5010 nM | < 0.1 µg/mL | – | > 80% | – | – | – | – | – | – | –
18 | O=C(N[C@H]1CCc2ccccc21)c1cnc2c(-c3cc(F)cc(F)c3F)cccc2c1C1CCOCC1 [Example 19] | < 0.1 µg/mL | 316 to 5010 nM | < 0.1 µg/mL | > 80% | > 80% | < 3.16 nM | – | – | – | – | – | –
19 | O=C(N[C@H]1CCOc2ccccc21)c1cnc2c(Br)c(F)ccc2c1Cl [Intermediate 14A, 8-Bromo-4-chloro-N-[(4S)-3,4-dihydro-2H-chromen-4-yl]-7-fluoroquinoline-3-carboxamide] | – | – | – | – | – | – | – | – | – | – | 3.18 | –
20 | O=C(N[C@H]1CCOc2ccccc21)c1cnc2c(Br)c(F)ccc2c1N1CC(F)C1 [Intermediate 15A, 8-Bromo-N-[(4S)-3,4-dihydro-2H-chromen-4-yl]-7-fluoro-4-(3-fluoroazetidin-1-yl)quinoline-3-carboxamide] | – | – | – | – | – | – | – | – | – | – | 1.29 | –
21 | CCc1c(C(=O)N[C@H]2CCc3ccccc32)cnc2c(-c3cc(F)cc(F)c3F)c(Cl)ccc12 [Example 22] | < 0.1 µg/mL | 3.16 to 31.6 nM | < 0.1 µg/mL | > 80% | > 80% | – | – | – | – | – | – | –
22 | O=C(N[C@H]1CCOc2ccccc21)c1cnc2c(-c3cc(F)cc(F)c3F)cccc2c1C1=CCOCC1 [Example 1, N-[(4S)-3,4-Dihydro-2H-chromen-4-yl]-4-(3,6-dihydro-2H-pyran-4-yl)-8-(2,3,5-trifluorophenyl)quinoline-3-carboxamide] | < 0.1 µg/mL | 31.6 to 316 nM | < 0.1 µg/mL | > 80% | – | < 3.16 nM | 90% | 90% | – | 80% | – | 90%
23 | CC(C)Oc1ccc2c(C3CCOCC3)c(C(=O)N[C@H]3CCOc4ccccc43)cnc2c1-c1cc(F)cc(F)c1F [Example 18] | < 0.1 µg/mL | 316 to 5010 nM | < 0.1 µg/mL | > 80% | > 80% | – | – | – | – | – | – | –
24 | N#Cc1ccc2c(c1)[C@@H](NC(=O)c1cnc3c(-c4cc(F)cc(F)c4F)c(F)ccc3c1N1CC(F)C1)CCO2 [Example 14] | < 0.1 µg/mL | 316 to 5010 nM | < 0.1 µg/mL | – | > 80% | 31.6 to 316 nM | – | – | – | – | – | –
